According to US20240400507A1, “Substituted Indole Compounds and the Use Thereof” (TROBIO THERAPEUTICS PTY LTD, priority 2021, published 2024):
Entries after “also recorded” stand apart in the source; their conditions may differ.

Columns and labels:
[1] = biological target: T1, Tpm4.2-containing actin microfilaments (Mus musculus, UniProt Q6IRU2); assay: Disruption of Tpm4.2-containing actin microfilaments in PMEF cells, images assessed visually; assay type: cell-based; conditions: PMEF cells stably expressing Tpm4.2 labelled with the NeonGreen fluorophore (footnote a)
T1 construct: investigated in primary mouse embryonic fibroblast (PMEF) cells; endogenous in cells; host or cells: primary mouse embryonic fibroblast (PMEF) cells

[2] = biological target: T1, Tpm4.2-containing actin microfilaments; assay: as above; assay type: cell-based; conditions: for Filament Disruption (minimum test concentration at which filament disruption was observed): primary mouse embryonic fibroblast (PMEF) cells, 24 hours treatment, anti-tropomyosin antibody staining of Tpm4.2
Method: Example 2—Anti-tropomyosin activity of compounds of formula (I) The ability of compounds of the disclosure to disrupt Tpm4.2-containing actin microfilaments was investigated in primary mouse embryonic fibroblast (PMEF) cells. Cells were seeded at 3×10^4 cells per well in a volume of 1000 μL complete media onto a 12 well plate containing 13 mm coverslips and left to plate down for 24 hours prior to treatment. Cells were then treated with DMSO and two concentrations of the test compounds. 24 hours post-treatment, cells were fixed with 16% paraformaldehyde (PBS) and stained with rabbit polyclonal anti-tropomyosin 6/9d antibody to visualise Tpm4.2. Single plane images were obtained using the Olympus IX83 epi-fluorescence microscope. Ten fields of view were collected for both Tpm4.2 fluorophore and 488-Atto-Phalloidin with each treatment condition. The images were assessed visually to determine if the Tpm4.2 filament network had been disrupted under the treatment condition (Table 1).

T1 sequence (Q6IRU2 whole entry): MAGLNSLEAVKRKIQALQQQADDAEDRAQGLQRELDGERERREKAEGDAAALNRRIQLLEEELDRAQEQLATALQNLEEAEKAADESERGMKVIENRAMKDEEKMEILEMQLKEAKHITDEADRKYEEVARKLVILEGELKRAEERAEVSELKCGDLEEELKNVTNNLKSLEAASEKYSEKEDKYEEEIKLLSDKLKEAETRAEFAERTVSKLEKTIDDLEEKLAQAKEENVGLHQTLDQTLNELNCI

Row | SMILES | Filament Disruption (minimum test concentration at which filament disruption was observed) [2] | other results
1 | CC(CO)(CO)NCCn1ccc2ccc(OCCc3ccccc3)cc21 [Compound 1, 2-((2-(6-phenethoxy-1H-indol-1-yI)ethyl)amino)-2-methylpropane-1,3-diol] |  | Filament Disruption (minimum test concentration at which filament disruption was observed) [1]: 4.0^a μM
2 | CC(CO)(CO)NCCn1ccc2ccc(OCCc3ccccc3F)cc21 [Compound 2, 2-((2-(6-(2-fluorophenethoxy)-1H-indol-1-yl)ethyl)amino)-2-methylpropane-1,3-diol] |  | Filament Disruption (minimum test concentration at which filament disruption was observed) [1]: 4.0^a μM
3 | CC(CO)(CO)NCCn1ccc2ccc(OCCc3cccc(F)c3)cc21 [Compound 3, 2-((2-(6-(3-fluorophenethoxy)-1H-indol-1-yl)ethyl)amino)-2-methylpropane-1,3-diol] |  | Filament Disruption (minimum test concentration at which filament disruption was observed) [1]: 4.0^a μM
4 | CC(CO)(CO)NCCn1ccc2ccc(OCCc3ccc(F)cc3)cc21 [Compound 4, 2-((2-(6-(4-fluorophenethoxy)-1H-indol-1-yl)ethyl)amino)-2-methylpropane-1,3-diol] |  | Filament Disruption (minimum test concentration at which filament disruption was observed) [1]: 3.0^a μM
5 | OCC(CO)NCCn1ccc2ccc(OCCc3ccc(F)cc3)cc21 [Compound 6, 2-((2-(6-(4-fluorophenethoxy)-1H-indol-1-yl)ethyl)amino)propane-1,3-diol] | 4.0 µM | 
6 | C[C@@H](CO)NCCn1ccc2ccc(OCCc3ccc(F)cc3)cc21 [Compound 7, (S)-2-((2-(6-(4-fluorophenethoxy)-1H-indol-1-yl)ethyl)amino)propan-1-ol] | 2.0 µM | 
7 | C[C@H](CO)NCCn1ccc2ccc(OCCc3ccc(F)cc3)cc21 [Compound 8, (R)-2-((2-(6-(4-fluorophenethoxy)-1H-indol-1-yl)ethyl)amino)propan-1-ol] | 2.0 µM | 
8 | OCCNCCn1ccc2ccc(OCCc3ccc(F)cc3)cc21 [Compound 9, 2-((2-(6-(4-fluorophenethoxy)-1H-indol-1-yl)ethyl)amino)ethan-1-ol] | 4.0 µM | 
9 | CC(C)(C)NCCn1ccc2ccc(OCCc3ccc(F)cc3)cc21 [Compound 10, N-(2-(6-(4-fluorophenethoxy)-1H-indol-1-yl)ethyl)-2-methylpropan-2-amine] | 2.0 µM | 
10 | Fc1ccc(CCOc2ccc3ccn(CCCN4CCOCC4)c3c2)cc1 [Compound 11, 4-(3-(6-(4-fluorophenethoxy)-1H-indol-1-yl)propyl)morpholine] | 20 µM | 
11 | COCC(C)(COC)NCCn1ccc2ccc(OCCc3ccc(F)cc3)cc21 [Compound 12, N-(2-(6-(4-fluorophenethoxy)-1H-indol-1-yl)ethyl)-1,3-dimethoxy-2-methylpropan-2-amine] | 9.0 µM | 
12 | CC(CO)(CO)NCCn1ccc2ccc(NCCc3ccc(F)cc3)cc21 [Compound 13, 2-((2-(6-((4-fluorophenethyl)amino)-1H-indol-1-yl)ethyl)amino)-2-methylpropane-1,3-diol] | 2.0 µM | Effect on Tpm4.2 filament network in representative image (FIG. 1) ([2]; PMEF cells, treatment versus control condition): parallel filament bundles observed in the control condition are lost and punctate aggregations of Tpm4.2 are observed near the nucleus; also recorded: disruption of the Tpm4.2 filament network
13 | CC(CO)(CO)NCCn1ccc2ccc(C(=O)NCc3ccc(F)cc3)cc21 [Compound 14, 1-(2-((1,3-dihydroxy-2-methylpropan-2-yl)amino)ethyl)-N-(4-fluorobenzyl)-1H-indole-6-carboxamide] | 2.0 µM | 
14 | CC(CO)(CO)NCCn1ccc2ccc(C(=O)OCc3ccc(F)cc3)cc21 [Compound 15, 4-fluorobenzyl 1-(2-((1,3-dihydroxy-2-methylpropan-2-yl)amino)ethyl)-1H-indole-6-carboxylate] | 6.5 µM | 

Now from value to molecule, other results behind:

Row | Filament Disruption (minimum test concentration at which filament disruption was observed) [2] | SMILES | other results
15 | 2.0 µM | CC(C)(CO)NCCn1ccc2ccc(OCCc3ccc(F)cc3)cc21 [Compound 5, 2-((2-(6-(4-fluorophenethoxy)-1H-indol-1-yl)ethyl)amino)-2-methylpropan-1-ol] | 
16 | 7.5 µM | Cc1ccccc1CCOc1ccc2ccn(CCNC(C)(CO)CO)c2c1 [Compound 16, 2-methyl-2-((2-(6-(2-methylphenethoxy)-1H-indol-1-yl)ethyl)amino)propane-1,3-diol] | 
17 | 2.0 µM | Cc1cccc(CCOc2ccc3ccn(CCNC(C)(CO)CO)c3c2)c1 [Compound 17, 2-methyl-2-((2-(6-(3-methylphenethoxy)-1H-indol-1-yl)ethyl)amino)propane-1,3-diol] | 
18 | 5.0 µM | Cc1ccc(CCOc2ccc3ccn(CCNC(C)(CO)CO)c3c2)cc1 [Compound 18, 2-methyl-2-((2-(6-(4-methylphenethoxy)-1H-indol-1-yl)ethyl)amino)propane-1,3-diol] | 
19 | 7.0 µM | COc1ccccc1CCOc1ccc2ccn(CCNC(C)(CO)CO)c2c1 [Compound 19, 2-methyl-2-((2-(6-(2-methoxyphenethoxy)-1H-indol-1-yl)ethyl)amino)propane-1,3-diol] | 
20 | 2.0 µM | COc1cccc(CCOc2ccc3ccn(CCNC(C)(CO)CO)c3c2)c1 [Compound 20, 2-methyl-2-((2-(6-(3-methoxyphenethoxy)-1H-indol-1-yl)ethyl)amino)propane-1,3-diol] | 
21 | 2.5 µM | COc1ccc(CCOc2ccc3ccn(CCNC(C)(CO)CO)c3c2)cc1 [Compound 21, 2-methyl-2-((2-(6-(4-methoxyphenethoxy)-1H-indol-1-yl)ethyl)amino)propane-1,3-diol] | 
22 | 2.5 µM | CC(CO)(CO)NCCn1ccc2ccc(OCCc3ccccc3C(F)(F)F)cc21 [Compound 22, 2-methyl-2-((2-(6-(2-(trifluoromethyl)phenethoxy)-1H-indol-1-yl)ethyl)amino)propane-1,3-diol] | 
23 | 2.5 µM | CC(CO)(CO)NCCn1ccc2ccc(OCCc3ccc(F)c(F)c3)cc21 [Compound 24, 2-methyl-2-((2-(6-(3,4-difluorophenethoxy)-1H-indol-1-yl)ethyl)amino)propane-1,3-diol] | 
24 | 2.5 µM | Cc1ccc(CCOc2ccc3ccn(CCNC(C)(CO)CO)c3c2)cc1C [Compound 25, 2-methyl-2-((2-(6-(3,4-dimethylphenethoxy)-1H-indol-1-yl)ethyl)amino)propane-1,3-diol] | 
